Laboratory results published in PubChem BioAssay (NCI).
“And” between values parts separate entries of the source, which are not always exact repeats. Identical values can stand only once.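 Compound exposure: 48 hours, 5 concentrations, 96-well plates. GI50 marks 50% less growth. TGI denotes the concentration required for complete inhibition of growth.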

Tests used:
Experiment in all cases: NCI tumour cell line growth inhibition, 48 h
MDA-MB-435 = test system: MDA-MB-435
OVCAR-3 ovarian = test system: OVCAR-3 ovarian
SR leukemia = test system: SR leukemia
OVCAR-8 ovarian = test system: OVCAR-8 ovarian
SF-295 CNS = test system: SF-295 CNS
K-562 leukemia = test system: K-562 leukemia
HOP-62 NSCLC = test system: HOP-62 NSCLC
CAKI-1 renal = test system: CAKI-1 renal
NCI/ADR-RES ovarian = test system: NCI/ADR-RES ovarian
SK-MEL-28 melanoma = test system: SK-MEL-28 melanoma

Row | Structure (SMILES) | TGI (MDA-MB-435) | TGI (OVCAR-3 ovarian) | TGI (SR leukemia) | TGI (OVCAR-8 ovarian) | TGI (SF-295 CNS) | TGI (K-562 leukemia) | TGI (HOP-62 NSCLC) | TGI (CAKI-1 renal) | TGI (NCI/ADR-RES ovarian) | TGI (SK-MEL-28 melanoma) | GI50 (MDA-MB-435) | GI50 (OVCAR-3 ovarian) | GI50 (SR leukemia) | GI50 (OVCAR-8 ovarian) | GI50 (SF-295 CNS) | GI50 (K-562 leukemia) | GI50 (HOP-62 NSCLC) | GI50 (CAKI-1 renal) | GI50 (NCI/ADR-RES ovarian) | GI50 (SK-MEL-28 melanoma)
1 | N#CC1(C#N)C2C=CC(C3CCC=C32)C1(C#N)C#N (centres undefined) | > 10 µM | > 10 µM | > 10 µM | > 10 µM | > 10 µM | > 10 µM | > 10 µM | > 10 µM | > 10 µM | > 10 µM | – | – | – | – | – | – | – | – | – | –
2 | CCCCCCCCCCCCCCCC(=O)OCC1OC(n2ccc(N)nc2=O)C(O)C1O (centres undefined) | > 100 µM | > 97 µM | 84.5 µM | > 100 µM | > 100 µM | > 100 µM | > 66.6 µM | > 100 µM | > 100 µM | > 100 µM | – | – | – | – | – | – | – | – | – | –
3 | CN(C)c1ccc(Sc2ccc3nc(N)nc(N)c3c2)cc1 | 14.2 µM | 4.59 µM | 6.71 µM | 9.88 µM | 14.1 µM | 4.55 µM | 15.6 µM | 16.8 µM | 14.9 µM | 15.5 µM | 0.542 µM | 1.56 µM | 0.629 µM | 0.589 µM | 0.537 µM | 0.142 µM | 0.884 µM | 2.03 µM | 0.743 µM | 2.76 µM
4 | O=C(Nc1ccccc1)Nc1ccccc1CNc1nc(Nc2ccc(OCCN3CCCC3)cc2)ncc1Cl | 9.58 µM | 2.36 µM | > 50 µM | > 50 µM | 14 µM | > 50 µM | 21.8 µM | 12.4 µM | 28.2 µM | 11.9 µM | 3.1 µM | 1.09 µM | 1.91 µM | 7.62 µM | 7.24 µM | 1.67 µM | 6.96 µM | 6.1 µM | 8.79 µM | 5.62 µM
5 | CCOc1cccnc1/C=N/NC(N)=S | > 100 µM | > 100 µM | 12.3 µM | > 100 µM | > 100 µM | > 100 µM | 48.5 µM | > 100 µM | > 100 µM | > 100 µM | 4.53 µM | 4.44 µM | 2.98 µM | 3.48 µM | 3.92 µM | 3.72 µM | 3.71 µM | 3.51 µM | 3.99 µM | 4.75 µM
6 | C#Cc1cccc(Nc2ncnc3ccc(-c4cncc(NS(C)(=O)=O)c4)cc23)c1 | 13.7 µM | 3.25 µM | 5.74 µM | 28.1 µM | 10.5 µM | 19.5 µM | 14.1 µM | – | > 100 µM | 14.1 µM | 2.94 µM | 1.15 µM | 1.37 µM | 3.7 µM | 2.47 µM | 3.79 µM | 1.84 µM | – | 21.7 µM | 1.47 µM
7 | CC1(C)CC2(C)OC2C2(C1)N=NC(=Nc1ccccc1)O2 (centres undefined) | 24.2 µM | 4.81 µM | 8.68 µM | > 100 µM | 29.1 µM | 12.5 µM | 30.4 µM | 12.5 µM | 55.2 µM | 27.4 µM | 3.01 µM | 2.23 µM | 2.56 µM | 2.9 µM | 13.3 µM | 2.3 µM | 8.76 µM | 2.68 µM | 4.44 µM | 11.9 µM
8 | CCOC(=O)Cc1csc(NC(=O)C(OC(=O)c2ccc(N)cc2)c2ccccc2)n1 (centres undefined) | > 100 µM | 45.3 µM | > 100 µM | > 100 µM | > 100 µM | > 100 µM | > 100 µM | > 100 µM | > 100 µM | 98 µM | 31.1 µM | 20.5 µM | 21.2 µM | 73.6 µM | 42.2 µM | 31.6 µM | 52 µM | 39.6 µM | 43.5 µM | 30.9 µM
9 | O=C(CN=Cc1cccs1)CSC(c1ccccc1)c1ccccc1 | 36.3 µM | 48.1 µM | 54.1 µM | 55.5 µM | > 100 µM | 54.1 µM | > 100 µM | 67.1 µM | 88.8 µM | > 100 µM | 17.7 µM | 17.6 µM | 17.1 µM | 22.6 µM | 35.1 µM | 15.8 µM | 34 µM | 24.9 µM | 24.9 µM | 27.7 µM
10 | CCNC(=O)Oc1ccc(/C(=C(\C)c2ccc(Cl)cc2)c2ccc(OCCN3CCCCC3)cc2)cc1 | 14.1 µM | 13.4 µM | 9.23 µM | 26 µM | 4.36 µM | 5.96 µM | 15.4 µM | – | 22.7 µM | 3.73 µM | 3.39 µM | 3.52 µM | 2.98 µM | 9.31 µM | 1.95 µM | 2.34 µM | 4.12 µM | – | 5.59 µM | 1.83 µM
11 | CC[C@@]1(OC(=O)CN(C)C)C(=O)OCc2c1cc1n(c2=O)Cc2cc3ccccc3nc2-1 | 1.54 µM | 2.15 µM and 1.73 µM | 0.114 µM and < 0.0427 µM | – | 0.673 µM and 0.938 µM | 7.67 µM and > 41.5 µM | 1.36 µM | 2.4 µM and 0.806 µM | – | – | – | 0.356 µM | 0.00209 µM | 0.0521 µM | < 0.0127 µM | 0.108 µM | – | – | 0.0377 µM | 1.01 µM
12 | O=c1c2cc(F)ccc2sc2c(NCCCN3CCCC3)nc3ccccc3c12 | 3.25 µM | 4.72 µM | 6.51 µM | 4.86 µM | 4.39 µM | 4.86 µM | – | 2.95 µM | 4.49 µM | 3.85 µM | 1.8 µM | 2.07 µM | 2.75 µM | 2.11 µM | 2.1 µM | 2.06 µM | – | 1.48 µM | 1.99 µM | 1.97 µM
13 | CCCCCCCCCCCCCCCCCC1=NC(C)(C)CN1CCO | 3.42 µM | 2.97 µM | 4.02 µM | – | 3.68 µM | 3.35 µM | 3.54 µM | 3.37 µM | 11.5 µM | 3.2 µM | 1.73 µM | 1.61 µM | 1.5 µM | – | 1.79 µM | 1.53 µM | 1.82 µM | 1.6 µM | 3.16 µM | 1.81 µM
14 | CC(=O)N[C@@H]1CCC[C@H](C(=O)Nc2cc(-c3cnn4c3CC(C)(C)C4)c(Cl)cn2)C1 | 11.9 µM | – | 1.21 µM | > 100 µM | > 100 µM | > 100 µM | > 100 µM | > 100 µM | > 100 µM | 0.342 µM | < 0.013 µM | – | < 0.01 µM | < 0.012 µM | < 0.0125 µM | 0.0212 µM | < 0.0113 µM | < 0.01 µM | 0.199 µM | < 0.0133 µM
